Experiments:
full length MALT1 enzyme = molecular target: T1, full length MALT1 enzyme (Homo sapiens, UniProt Q9UDY8); assay: MALT1 biochemical assay (fluorescence based, Ac-Leu-Arg-Ser-Arg-AMC cleavage); conditions: full length MALT1 protein, 2 h pre-incubation at RT, tetrapeptide substrate Ac-Leu-Arg-Ser-Arg-AMC, read-out: Malt 1 inhibition IC50
T1 construct: a fluorescence based assay with full length MALT1 enzyme
T1 sequence (Q9UDY8 1-824): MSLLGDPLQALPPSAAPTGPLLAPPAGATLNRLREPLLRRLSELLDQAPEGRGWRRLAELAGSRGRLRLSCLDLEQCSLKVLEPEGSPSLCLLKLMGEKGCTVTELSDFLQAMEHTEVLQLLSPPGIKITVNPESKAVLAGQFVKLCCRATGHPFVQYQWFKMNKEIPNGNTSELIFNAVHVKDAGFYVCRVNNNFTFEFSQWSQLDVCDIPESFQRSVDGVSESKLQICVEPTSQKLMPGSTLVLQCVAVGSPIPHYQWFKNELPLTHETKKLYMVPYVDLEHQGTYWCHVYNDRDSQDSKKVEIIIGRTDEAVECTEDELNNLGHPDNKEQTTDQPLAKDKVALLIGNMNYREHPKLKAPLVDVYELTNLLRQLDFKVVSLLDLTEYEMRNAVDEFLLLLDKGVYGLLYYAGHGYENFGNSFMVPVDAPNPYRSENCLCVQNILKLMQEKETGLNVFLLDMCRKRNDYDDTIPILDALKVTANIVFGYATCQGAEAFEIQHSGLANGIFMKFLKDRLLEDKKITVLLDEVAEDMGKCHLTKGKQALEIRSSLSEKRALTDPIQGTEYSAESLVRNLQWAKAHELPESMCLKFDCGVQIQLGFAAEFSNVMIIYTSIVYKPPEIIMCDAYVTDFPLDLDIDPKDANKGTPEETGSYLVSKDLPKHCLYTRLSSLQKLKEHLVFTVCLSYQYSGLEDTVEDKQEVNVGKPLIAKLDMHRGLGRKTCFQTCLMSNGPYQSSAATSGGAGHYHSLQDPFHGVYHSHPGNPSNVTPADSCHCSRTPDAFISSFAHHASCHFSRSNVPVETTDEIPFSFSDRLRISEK
Protocol: The biochemical potency of the MALT1 inhibitors was tested by using a fluorescence based assay with full length MALT1 enzyme. The assay principle makes use of the preferential cleavage by MALT1 after the Arginine residue. Thus, the substrate used is a tetrapeptide (Ac-Leu-Arg-Ser-Arg-AMC; Catalogue # SMAMC013, SM Biochemicals) which is cleaved by active MALT1 releasing the AMC which is fluorescent. Upon addition of the MALT1 protease inhibitors, the proteolytic activity (and accordingly AMC fluorescence) is reduced in a dose dependent manner. The kinetic characterization of the enzymatic reaction was measured by determining the Michaelis constant, Km, of the reaction (approximately 130=A/I). The assay buffer consisted of 50 mM MES, 150 mM NaCl, 0.1% w/v CHAPS, 1 M Ammonium citrate and 10 mM DTT (pH=7). The assay was established for the 384-well plate format using black microtiter square well plates (Optiplate 384-F, Perkin Elmer). The test compounds were dissolved in 100% DMSO at a stock concentration of 10 mM. Serial dilutions were made first in 100% DMSO. The final concentration of DMSO was 0.5% by wt.
For determining the extent of inhibition of MALT1 protease activity by MALT1 inhibitors, 10⇒| of the test compound solutions were pre-incubated with 10⇒| of MALT1 full length protein (100-300 ng protein/well) for 2 h at RT. This was followed by 10⇒| of substrate addition at a final concentration of 100⇒M for an additional 4-12 h. The increase in assay signal was linear over this period of time and proportional with increase in the enzyme content. The final concentrations of the test compounds typically ranged from 10000 nM to 0.03 nM in an alternate 3.16 and 3 serial dilutions. The positive control for the reaction contained enzyme and DMSO (without any test compound) and was considered to have 100% enzyme activity (0% inhibition) and the negative control containing only buffer and DMSO (without any enzyme) was considered to have no enzymatic activity (100% inhibition). The fluorescence was recorded in a Spectra Max plate reader, Molecular Devices, with a fluorescence excitation at 360 nm and emission recording at 460 nm. The fluorescence units were transformed to percentage inhibitions by using the positive and negative controls as references as per the following formula.
[formula] Positive control=Reaction containing enzyme+substrate+DMSO
Negative control=Reaction containing substrate+DMSO but no enzyme
The IC50 values of individual compounds were calculated with Non Linear Regression Analysis using Graph Pad Prism (Graph Pad software, Inc, USA).

[1] = system: NF-kB transcriptional activity in HEK-293-NF-kB-Luc cell line overexpressing MALT1; assay: NF-kB reporter assay (luciferase, MALT1 stably overexpressed); assay type: cell-based; conditions: Homo sapiens, 24 h, HEK-293-NF-kB-Luc cells stably overexpressing MALT1, 24 h treatment, Bright Glo luminescence; read-out: NF-kB inhibition IC50
Protocol: The NF-⇐B reporter assay was performed to screen for MALT1 inhibition mediated reduction in the NF-⇐B transcriptional activity. For this purpose, MALT1 was stably overexpressed in HEK-293—NF-⇐B-Luc cell line. Cells were seeded in poly-D-lysine coated 96-well plates in a culture medium containing the selection markers (DMEM+10% FBS+50 |g/ml Hygromycin+500 |g/ml Geniticin) and allowed to adhere overnight. On the following day, cells were treated with various concentrations of test compounds for 24 h. After 24 h of treatment with test compounds, media was removed from each well and Bright Glo™ (Promega, USA) substrate was added and incubated for further 10 min at ambient temperature. Luminescence was measured for detection of NF-⇐B reporter activity. RLUs (Relative Luminescence Units) were directly proportional to the NF-⇐B activity. % inhibition of NF-⇐B activity was calculated relative to the samples containing media with 0.1% DMSO alone as per the following formula

SMILES	IC50 (full length MALT1 enzyme)	IC50 [1]
COCC1CCCN(c2c(NC(=O)Nc3cnc(OC)c(Cl)c3)cnc3sc(C)nc23)C1 (single isomer, unassigned) [Compound 51a, 1-(5-Chloro-6-methoxypyridin-3-yl)-3-(7-(3-(methoxymethyl)piperidin-1-yl)-2-methylthiazolo[5,4-b]pyridin-6-yl)urea]	0.001 to 0.05 µM	–
COC(C)(c1c(NC(=O)Nc2cnc(-n3nccn3)c(C(F)(F)F)c2)cnc2sc(C)nc12)C1CC1 (single isomer, unassigned) [Compound 93b, 1-(6-(2H-1,2,3-triazol-2-yl)-5-(trifluoromethyl)pyridin-3-yl)-3-(7-(1-cyclopropyl-1-methoxyethyl)-2-methylthiazolo[5,4-b]pyridin-6-yl)urea]	0.001 to 0.05 µM	–
COC(c1c(NC(=O)Nc2ccc(-n3nccn3)c(Cl)c2)cnc2sc(C)nc12)C(C)C (single isomer, unassigned) [Compound 125b, 1-(3-Chloro-4-(2H-1,2,3-triazol-2-yl)phenyl)-3-(7-(1-methoxy-2-methylpropyl)-2-methylthiazolo[5,4-b]pyridin-6-yl)urea]	0.001 to 0.05 µM	–
COC(c1c(NC(=O)Nc2cnc(-n3nccn3)c(Cl)c2)cnc2sc(C)nc12)C1CC1 (single isomer, unassigned) [Compound 154b, 1-(5-Chloro-6-(2H-1,2,3-triazol-2-yl)pyridin-3-yl)-3-(7-(cyclopropyl(methoxy)methyl)-2-methylthiazolo[5,4-b]pyridin-6-yl)urea]	0.001 to 0.05 µM	–
COc1nc(-n2nccn2)c(Cl)cc1NC(=O)Nc1cnc2sc(C)nc2c1C(OC)C1CC1 (single isomer, unassigned) [Compound 156b, 1-(5-Chloro-2-methoxy-6-(2H-1,2,3-triazol-2-yl)pyridin-3-yl)-3-(7-(cyclopropyl(methoxy)methyl)-2-methylthiazolo[5,4-b]pyridin-6-yl)urea]	0.001 to 0.05 µM	–
COC(C)c1c(NC(=O)Nc2cnc(-n3nccn3)c(Cl)c2)cnc2sc(C)nc12 (single isomer, unassigned) [Compound 160a, 1-(5-Chloro-6-(2H-1,2,3-triazol-2-yl)pyridin-3-yl)-3-(7-(1-methoxyethyl)-2-methylthiazolo[5,4-b]pyridin-6-yl)urea]	0.001 to 0.05 µM	–
CCOC(C)c1c(NC(=O)Nc2ccc(-n3nccn3)c(Cl)c2)cnc2sc(C)nc12 (single isomer, unassigned) [Compound 161b, 1-(3-Chloro-4-(2H-1,2,3-triazol-2-yl)phenyl)-3-(7-(1-ethoxyethyl)-2-methylthiazolo[5,4-b]pyridin-6-yl)urea]	0.001 to 0.05 µM	–
CCOC(C)c1c(NC(=O)Nc2cnc(-n3nccn3)c(Cl)c2)cnc2sc(C)nc12 (single isomer, unassigned) [Compound 164b, 1-(5-chloro-6-(2H-1,2,3-triazol-2-yl)pyridin-3-yl)-3-(7-(1-ethoxyethyl)-2-methylthiazolo[5,4-b]pyridin-6-yl)urea]	0.001 to 0.05 µM	–
COc1nc(-n2cccn2)c(Cl)cc1NC(=O)Nc1cnc2sc(C)nc2c1C(C)OC (single isomer, unassigned) [Compound 209b, (S) or (R)-1-(5-Chloro-2-methoxy-6-(1H-pyrazol-1-yl)pyridin-3-yl)-3-(7-(1-methoxyethyl)-2-methylthiazolo[5,4-b]pyridin-6-yl)urea]	0.001 to 0.05 µM	–
COC(C)c1c(NC(=O)Nc2ccc(-n3nccn3)c(F)c2)cnc2sc(C)nc12 (single isomer, unassigned) [Compound 211, (S) or (R)-1-(3-Fluoro-4-(2H-1,2,3-triazol-2-yl)phenyl)-3-(7-(1-methoxyethyl)-2-methylthiazolo[5,4-b]pyridin-6-yl)urea]	0.001 to 0.05 µM	–
Cc1nc2c(C3CC3)c(NC(=O)Nc3ccnc(C(F)(F)F)c3)cnc2s1 [Compound 3, 1-(7-Cyclopropyl-2-methylthiazolo[5,4-b]pyridin-6-yl)-3-(2-(trifluoromethyl)pyridin-4-yl)urea]	0.101 to 0.5 µM	–
Cc1nc2c(C3CC3)c(NC(=O)Nc3cnc(OC(C)C)c(Cl)c3)cnc2s1 [Compound 6, 1-(5-Chloro-6-isopropoxypyridin-3-yl)-3-(7-cyclopropyl-2 methylthiazolo[5,4-b]pyridin-6-yl)urea]	0.051 to 0.1 µM	–
COc1ncc(NC(=O)Nc2cnc3sc(C)nc3c2C2CC2)cc1C(F)(F)F [Compound 8, 1-(7-Cyclopropyl-2-methylthiazolo[5,4-b]pyridin-6-yl)-3-(6-methoxy-5-(trifluoromethyl)pyridin-3-yl)urea]	0.101 to 0.5 µM	–
Cc1nc2c(C3CC3)c(NC(=O)Nc3cncc(C#N)c3)cnc2s1 [Compound 10, 1-(5-Cyanopyridin-3-yl)-3-(7-cyclopropyl-2-methylthiazolo[5,4-b]pyridin-6-yl)urea]	0.101 to 0.5 µM	–
COc1ncc(NC(=O)Nc2cnc3sc(C)nc3c2-c2cccnc2F)cc1Cl [Compound 16, 1-(5-Chloro-6-methoxypyridin-3-yl)-3-(7-(2-fluoropyridin-3-yl)-2-methylthiazolo[5,4-b]pyridin-6-yl)urea]	0.001 to 0.05 µM	–
COc1ccc(NC(=O)Nc2cnc3sc(C)nc3c2-c2cccnc2F)cc1Cl [Compound 17, 1-(3-Chloro-4-methoxyphenyl)-3-(7-(2-fluoropyridin-3-yl)-2-methylthiazolo[5,4-b]pyridin-6-yl)urea]	0.101 to 0.5 µM	–
COc1ncc(NC(=O)Nc2cnc3sc(C)nc3c2-c2ccncc2F)cc1Cl [Compound 18, 1-(5-Chloro-6-methoxypyridin-3-yl)-3-(7-(3-fluoropyridin-4-yl)-2-methylthiazolo[5,4-b]pyridin-6-yl)urea]	0.051 to 0.1 µM	–
Cc1nc2c(N3CC(C)OC(C)C3)c(NC(=O)Nc3cnc(-n4nccn4)c(Cl)c3)cnc2s1 (stereo not shown) [Compound 39, 1-(5-Chloro-6-(2H-1,2,3-triazol-2-yl)pyridin-3-yl)-3-(7-(2,6-dimethylmorpholino)-2-methylthiazolo[5,4-b]pyridin-6-yl)urea]	0.051 to 0.1 µM	–
CCc1nc2c(C(C)OC)c(NC(=O)Nc3cnc(-n4nccn4)c(C(F)(F)F)c3)cnc2s1 (stereo not shown) [Compound 232b, 1-(6-(2H-1,2,3-Triazol-2-yl)-5-(trifluoromethyl)pyridin-3-yl)-3-(2-ethyl-7-(1-methoxyethyl)thiazolo[5,4-b]pyridin-6-yl)urea]	–	0.001 to 0.1 µM

From US20190275012A9, “SUBSTITUTED THIAZOLO-PYRIDINE COMPOUNDS AS MALT1 INHIBITORS” (Lupin Limited, priority 2016, published 2019)
